Reference: PubChem BioAssay AID1963860 (Molecular Pharmacology Branch, DTP, NCI, 2024)

System: CN0375-F725-PDC KRAS spheroid viability
Assay: Anticancer human tumor CN0375-F725-PDC patient-derived colon carcinoma cell line growth inhibition [KRAS2]
Conditions: spheroids with HUVEC and MSC; for IC50: curve of first compound; for viability, T/C: stronger effect = lower value
Procedure, shortened: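 Combination screen of spheroid viability in tumor-cell co-cultures with endothelial (HUVEC) and mesenchymal stem cell stroma. Each agent was tested in half-log dilutions, topping at clinical Cmax or at 10 microM without a known Cmax.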

[1] = second compound 0.0316 µM, first compound 0.0316 µM
[2] = second compound 0.0316 µM, first compound 0.1 µM
[3] = second compound 0.0316 µM, first compound 0.316 µM
[4] = second compound 0.0316 µM, first compound 1 µM
[5] = second compound 0.0316 µM, first compound 3.16 µM
[6] = second compound 0.0316 µM, first compound 10 µM
[7] = second compound 0.1 µM, first compound 0.0316 µM
[8] = second compound 0.1 µM, first compound 0.1 µM
[9] = second compound 0.1 µM, first compound 0.316 µM
[10] = second compound 0.1 µM, first compound 1 µM
[11] = second compound 0.1 µM, first compound 3.16 µM
[12] = second compound 0.1 µM, first compound 10 µM
[13] = second compound 0.316 µM, first compound 0.0316 µM
[14] = second compound 0.316 µM, first compound 0.1 µM
[15] = second compound 0.316 µM, first compound 0.316 µM
[16] = second compound 0.316 µM, first compound 1 µM
[17] = second compound 0.316 µM, first compound 3.16 µM
[18] = second compound 0.316 µM, first compound 10 µM
[19] = second compound 1 µM, first compound 0.0316 µM
[20] = second compound 1 µM, first compound 0.1 µM
[21] = second compound 1 µM, first compound 0.316 µM
[22] = second compound 1 µM, first compound 1 µM
[23] = second compound 1 µM, first compound 3.16 µM
[24] = second compound 1 µM, first compound 10 µM
[25] = second compound 3.16 µM, first compound 0.0316 µM
[26] = second compound 3.16 µM, first compound 0.1 µM
[27] = second compound 3.16 µM, first compound 0.316 µM
[28] = second compound 3.16 µM, first compound 1 µM
[29] = second compound 3.16 µM, first compound 3.16 µM
[30] = second compound 3.16 µM, first compound 10 µM
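Further: spheroids exposed to agents for 7 days.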

Structure (SMILES) | IC50 (second compound 0.0316 µM) | IC50 (second compound 0.1 µM) | IC50 (second compound 0.316 µM) | IC50 (second compound 1 µM) | IC50 (second compound 3.16 µM) | viability, T/C [1] | viability, T/C [2] | viability, T/C [3] | viability, T/C [4] | viability, T/C [5] | viability, T/C [6] | viability, T/C [7] | viability, T/C [8] | viability, T/C [9] | viability, T/C [10] | viability, T/C [11] | viability, T/C [12] | viability, T/C [13] | viability, T/C [14] | viability, T/C [15] | also measured
COC(=O)c1ccc2c(C(=Nc3ccc(N(C)C(=O)CN4CCN(C)CC4)cc3)c3ccccc3)c(O)[nH]c2c1 + C=CC(=O)N1CCN(c2nc(OCC3CCCN3C)nc3c2CCN(c2cccc4cccc(C)c24)C3)CC1CC#N | 2970 nM | 2800 nM | 2340 nM | 1480 nM | < 31.6 nM | 102% | 95.3% | 91.1% | 91.5% | 47.6% | 0.22% | 104% | 98.8% | 92.6% | 89.4% | 45.1% | 0.36% | 99.5% | 100% | 93.2% | viability, T/C [16]: 90.8%; viability, T/C [17]: 35.5%; viability, T/C [18]: 0.16%; viability, T/C [19]: 93.8%; viability, T/C [20]: 91.3%; viability, T/C [21]: 85.2%; viability, T/C [22]: 68.7%; viability, T/C [23]: 15.4%; viability, T/C [24]: 0.41%; viability, T/C [25]: 26.5%; viability, T/C [26]: 20.2%; viability, T/C [27]: 21.8%; viability, T/C [28]: 5.53%; viability, T/C [29]: 1.94%; viability, T/C [30]: 0.67%
O=C(c1cc(Cc2n[nH]c(=O)c3ccccc23)ccc1F)N1CCN(C(=O)C2CC2)CC1 + C=CC(=O)N1CCN(c2nc(OCC3CCCN3C)nc3c2CCN(c2cccc4cccc(C)c24)C3)CC1CC#N | > 10000 nM | > 10000 nM | > 10000 nM | > 10000 nM | < 31.6 nM | 104% | 104% | 99% | 102% | 99.4% | 94.7% | 108% | 107% | 101% | 98.8% | 104% | 99.3% | 101% | 107% | 97.5% | viability, T/C [16]: 99.6%; viability, T/C [17]: 101%; viability, T/C [18]: 92.5%; viability, T/C [19]: 100%; viability, T/C [20]: 102%; viability, T/C [21]: 97.9%; viability, T/C [22]: 90.6%; viability, T/C [23]: 103%; viability, T/C [24]: 89%; viability, T/C [25]: 34.1%; viability, T/C [26]: 29%; viability, T/C [27]: 21.5%; viability, T/C [28]: 22.7%; viability, T/C [29]: 28.9%; viability, T/C [30]: 8.54%
